Results published in patent EP1116727B1, “PEPTIDE DERIVATIVE” (Takeda Chemical Industries, Ltd., priority 1998, dated 2000).
pEC50: −log10 of the molar value. Non-standard residues stand in square brackets, D forms with d. Residues, ends and D or L forms follow the SMILES beside them. No end group written: not given here. Phe(4-Cl) = N[C@@H](Cc1ccc(Cl)cc1)C(=O)O; Cha = N[C@@H](CC1CCCCC1)C(=O)O; Nle = CCCC[C@H](N)C(=O)O

The compounds below were run against T1, APJ (Homo sapiens, UniProt P35414) (assay: Suppression activity on forskolin stimulated cAMP production). Conditions: suppression of cAMP production stimulated with 1 µM forskolin; CHO-A10 clone cells; 37°C for 30 minutes; cAMP EIA.
T1 construct: expressed in transfected cells; host or cells: CHO cells (CHO-A10 clone)
T1 sequence (P35414 1-380): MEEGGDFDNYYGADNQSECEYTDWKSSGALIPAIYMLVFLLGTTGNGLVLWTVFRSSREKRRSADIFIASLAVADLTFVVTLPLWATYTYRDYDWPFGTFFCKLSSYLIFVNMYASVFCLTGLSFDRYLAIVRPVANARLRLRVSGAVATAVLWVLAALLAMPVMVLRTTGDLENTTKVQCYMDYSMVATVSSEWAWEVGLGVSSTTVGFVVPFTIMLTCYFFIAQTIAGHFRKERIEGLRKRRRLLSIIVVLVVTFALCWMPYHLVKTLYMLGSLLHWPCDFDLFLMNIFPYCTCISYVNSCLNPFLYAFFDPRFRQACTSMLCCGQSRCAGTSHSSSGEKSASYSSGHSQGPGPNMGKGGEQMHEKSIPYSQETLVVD
Format: cell-based
Method: Subsequently, after washing with 500 µl of the assay buffer once, 500 µl each of the sample dissolved in the assay buffer added with 1 µM of forskolin were put into each well to incubate at 37°C for 30 minutes. Wells incubated with assay buffer added with no forskolin were prepared to know the basic cAMP production of cells (basal level), and similarly, wells incubated with assay buffer added with forskolin were also prepared to know the maximum cAMP production with stimulation of foskolin (maximum level). After completion of incubation, each well was washed with 500 µl of the assay buffer once, added with 500 µl of the lysis buffer IB included in the cAMP EIA system (Amersham Pharmacia Biotech) and extraction of cAMP was carried out. Following the prescription for the kit, a portion of 100 µl each of the extracts was used to assay. The level of suppression activity on cAMP production was calculated by taking the difference between the maximum level and cAMP in the wells that was added with a sample (amount of the suppression of cAMP production), and by taking it as a percentage relative to the increased production (difference between maximum level and basal level) in cAMP associated with forskolin stimulation, and EC50 was determined based on the dose response curve.

pEC50	Compound
9.39	CCCC[C@H](NC(=O)[C@@H]1CCCN1C(=O)CNC(=O)[C@H](CCCCN)NC(=O)[C@H](Cc1c[nH]cn1)NC(=O)[C@H](CO)NC(=O)[C@H](CC(C)C)NC(=O)[C@H](CCCNC(=N)N)NC(=O)[C@@H]1CCCN1C(=O)[C@H](CCCNC(=N)N)NC(=O)[C@H](CCC(N)=O)NC(=O)[C@H](CCCNC(=N)N)NC(=O)[C@H](CCCNC(=N)N)NC(=O)[C@H](Cc1ccccc1)NC(=O)[C@H](CCCCN)NC(=O)[C@H](CCCNC(=N)N)NC(=O)[C@H](CCCNC(=N)N)NC(=O)CNC(=O)CNC(=O)[C@H](CCC(N)=O)NC(=O)[C@H](Cc1c[nH]c2ccccc12)NC(=O)[C@@H]1CCCN1C(=O)CNC(=O)[C@@H]1CCCN1C(=O)CNC(=O)[C@H](CC(N)=O)NC(=O)[C@H](CCCNC(=N)N)NC(=O)[C@H](CO)NC(=O)CNC(=O)[C@H](CCCNC(=N)N)NC(=O)[C@@H]1CCCN1C(=O)[C@H](CCC(N)=O)NC(=O)[C@@H](NC(=O)[C@@H](N)CC(C)C)C(C)C)C(=O)N1CCC[C@H]1C(=O)N[C@@H](Cc1ccc(O)cc1)C(=O)O [Example 2] (H-LVQPRGSRNGPGPWQGGRRKFRRQRPRLSHKGP[Nle]PY-OH)
9.72	CCCC[C@H](NC(=O)[C@@H]1CCCN1C(=O)CNC(=O)[C@H](CCCCN)NC(=O)[C@H](Cc1c[nH]cn1)NC(=O)[C@H](CO)NC(=O)[C@H](CC(C)C)NC(=O)[C@H](CCCNC(=N)N)NC(=O)[C@@H]1CCCN1C(=O)[C@H](CCCNC(=N)N)NC(=O)[C@@H]1CCC(=O)N1)C(=O)N1CCC[C@H]1C(=O)N[C@@H](Cc1ccc(O)cc1)C(=O)O [Example 4]
9.55	CSCC[C@H](NC(=O)[C@@H]1CCCN1C(=O)CNC(=O)[C@H](CCCCN)NC(=O)[C@H](Cc1c[nH]cn1)NC(=O)[C@H](CO)NC(=O)[C@H](CC(C)C)NC(=O)[C@H](CCCNC(=N)N)NC(=O)[C@@H]1CCCN1C(=O)[C@@H](N)CCCNC(=N)N)C(=O)N1CCC[C@H]1C(=O)N[C@@H](Cc1ccc2ccccc2c1)C(=O)O [Example 30]
9.52	CSCC[C@H](NC(=O)[C@@H]1CCCN1C(=O)CNC(=O)[C@H](CCCCN)NC(=O)[C@H](Cc1c[nH]cn1)NC(=O)[C@H](CO)NC(=O)[C@H](CC(C)C)NC(=O)[C@H](CCCNC(=N)N)NC(=O)[C@@H]1CCCN1C(=O)[C@@H](N)CCCNC(=N)N)C(=O)N[C@@H](Cc1ccc2ccccc2c1)C(=O)O [Example 31]
9.70	CSCC[C@H](NC(=O)[C@@H]1CCCN1C(=O)CNC(=O)[C@H](CCCCN)NC(=O)[C@H](Cc1c[nH]cn1)NC(=O)[C@H](CO)NC(=O)[C@H](CC(C)C)NC(=O)[C@H](CCCNC(=N)N)NC(=O)[C@@H]1CCCN1C(=O)[C@@H](N)CCCNC(=N)N)C(=O)N1CCC[C@H]1C(=O)N[C@@H](Cc1ccc(Cl)cc1)C(=O)O [Example 32]
10.00	CSCC[C@H](NC(=O)[C@@H]1CCCN1C(=O)CNC(=O)[C@H](CCCCN)NC(=O)[C@H](Cc1c[nH]cn1)NC(=O)[C@H](CO)NC(=O)[C@H](CC(C)C)NC(=O)[C@H](CCCNC(=N)N)NC(=O)[C@@H]1CCCN1C(=O)[C@@H](N)CCCNC(=N)N)C(=O)N[C@@H](Cc1ccc(Cl)cc1)C(=O)O [Example 33]
9.43	CSCC[C@H](NC(=O)[C@@H]1CCCN1C(=O)CNC(=O)[C@H](CCCCN)NC(=O)[C@H](Cc1c[nH]cn1)NC(=O)[C@H](CO)NC(=O)[C@H](CC(C)C)NC(=O)[C@H](CCCNC(=N)N)NC(=O)[C@@H]1CCCN1C(=O)[C@@H](N)CCCNC(=N)N)C(=O)N[C@@H](CC1CCCCC1)C(=O)O [Example 34]
9.47	CC(C)C[C@H](NC(=O)[C@H](CCCNC(=N)N)NC(=O)[C@@H]1CCCN1C(=O)[C@H](CCCNC(=N)N)NC(=O)[C@@H]1CCC(=O)N1)C(=O)N[C@@H](CO)C(=O)N[C@@H](Cc1c[nH]cn1)C(=O)N[C@@H](CCCCN)C(=O)NCC(=O)N1CCC[C@H]1C(=O)N[C@@H](CC1CCCCC1)C(=O)N1CCC[C@H]1C(=O)N[C@@H](Cc1ccccc1)C(=O)O [Example 35]
9.80	CC(C)C[C@H](NC(=O)[C@H](CCCNC(=N)N)NC(=O)[C@@H]1CCCN1C(=O)[C@H](CCCNC(=N)N)NC(=O)[C@H](CCC(N)=O)NC(=O)[C@H](CCCNC(=N)N)NC(=O)[C@@H](N)CCCNC(=N)N)C(=O)N[C@@H](CO)C(=O)N[C@@H](Cc1c[nH]cn1)C(=O)N[C@@H](CCCCN)C(=O)NCC(=O)N1CCC[C@H]1C(=O)N[C@@H](CC1CCCCC1)C(=O)O [Example 36] (H-RRQRPRLSHKGP[Cha]-OH)
9.85	CSCC[C@H](NC(=O)[C@@H]1CCCN1C(=O)CNC(=O)[C@H](CCCCN)NC(=O)[C@H](Cc1c[nH]cn1)NC(=O)[C@H](CO)NC(=O)[C@H](CC(C)C)NC(=O)[C@H](CCCNC(=N)N)NC(=O)[C@@H]1CCCN1C(=O)[C@H](CCCNC(=N)N)NC(=O)[C@H](CCC(N)=O)NC(=O)[C@H](CCCNC(=N)N)NC(=O)[C@@H](N)CCCNC(=N)N)C(=O)N1CCC[C@H]1C(=O)N[C@@H](Cc1ccc(Cl)cc1)C(=O)O [Example 37]
9.46	CCCC[C@H](NC(=O)[C@H](Cc1c[nH]cn1)NC(=O)[C@H](CO)NC(=O)[C@H](CC(C)C)NC(=O)[C@H](CCCNC(=N)N)NC(=O)[C@@H]1CCCN1C(=O)[C@H](CCCNC(=N)N)NC(=O)[C@H](CCC(N)=O)NC(=O)[C@H](CCCNC(=N)N)NC(=O)[C@@H](N)CCCNC(=N)N)C(=O)NCC(=O)N1CCC[C@H]1C(=O)N[C@@H](CCSC)C(=O)N1CCC[C@H]1C(=O)N[C@@H](Cc1ccc(Cl)cc1)C(=O)O [Example 38] (H-RRQRPRLSH[Nle]GPMP[Phe(4-Cl)]-OH)
9.28	LVQPRGSRNGPGPWQGGRRKFRRQRPRLSHKGPMPF [reference compound]
